Source: publication PMC11565046, “Rational design of 2H-chromene-based antiphytovirals that inhibit virion assembly by outcompeting virus capsid-RNA interactions” (iScience, 2024)
Read-outs that look alike come from different tables or passages of the source.

Key:
PVY [1] = experiment: Curative activity against PVY, half-leaf method on Chenopodium amaranticolor; type: in vivo; settings: Potato virus Y, in Chenopodium amaranticolor; 500 μg/mL; Chenopodium amaranticolor leaves; average of three replicates
Excerpt: (§1) According to previous reports,[46] PVY was infested in Nicotiana tabacum K326, and PVY was harvested and purified after showing severe infection symptoms on the leaves. The literature-guided protocol was followed to assess the curative, prophylactic, and […] potential of the target compounds under investigation.[15]
To assess the curative effectiveness against PVY, a uniform layer of 200–300 mesh emery was applied to the leaves of C. amaranticolor, followed by rubbing with a virus solution. For 1.5 h, then the emery was washed off with water. After the leaves naturally dried, a 500 μg/mL solution of the test compound was carefully applied to one side of the leaf, while the opposite side received a 1% Tween 80 solution as a control. The plants were subsequently incubated in a greenhouse maintained at 25°C. After 5−7 days, the presence of necrotic spots on the leaves was recorded, with each compound tested on three replicate plants. The average inhibition rate was determined by analyzing the data from these replications.

PVY [2] = experiment: Inactivating activity against PVY, half-leaf method on Chenopodium amaranticolor; type: in vivo, potato virus Y; settings: for EC50: Potato virus Y, in Chenopodium amaranticolor
Procedure: as §1
Target compound solution (1,000 μg/mL) and 2 × virus solution were combined in equal quantities and incubated for 30 min. Evenly distribute emery onto the leaf blades, and apply the mixture of virus and compound solution onto the right side of C. amaranticolor leaf blades. Following this, an identical quantity of a 1× virus solution was applied to the untreated side of the leaf. Following a duration of 1.5 h, the emery residue present on the leaf surface was removed using a rinsing process utilizing water. The plants were incubated within a controlled greenhouse environment, maintaining a consistent temperature of 25°C. After 5−7 days, they proceeded to statistics the number of necrotic spots on the leaves. For each chemical, triplicate experiments were undertaken, and the average percentage of inhibition was subsequently determined.

PVY [3] = experiment: Protective activity against PVY, half-leaf method on Chenopodium amaranticolor; type: in vivo; settings: Potato virus Y, in Chenopodium amaranticolor; 500 μg/mL; Chenopodium amaranticolor leaves; average of three replicates
Procedure: as §1
A 500 μg/mL solution of the targeted compound was delicately applied to one side of C. amaranticolor leaves, while the other side was treated with a 1% Tween 80 aqueous solution. The plants were positioned in a greenhouse set at 25°C. Following a 24 h period, the entire leaf surface was inoculated with PVY by uniformly distributing 200–300 mesh emery. After 1.5 h, the emery was washed off with water, and the plants were returned to the greenhouse. After 5–7 days, the number of necrotic spots was tallied, with the assessment based on the greenhouse population. Each compound was tested in triplicate, and the average inhibition rate was subsequently calculated.

PVY CP^wt = PVY CP^wt (Potato virus Y, UniProt A0A650FPI8); experiment: MST assay for affinity with PVY CP^wt; type: binding
Excerpt: Microscale thermophoresis (MST) serves as a potent technique for quantifying the strength of interactions occurring between small molecules and their respective ligands.[19]^,[20] The binding strength between specific target drugs and PVY CP^wt was investigated in vitro using MST, as depicted in Figures 5G and S3. This experimental approach aimed to acquire insights into how target compounds exert their influences against PVY. […] Similarly, the affinity of target compounds for interacting with PVY CP^S125A was tested.
The PVY CP^wt gene, the wild-type variant of the Potato Virus Y coat protein, was cloned into the pET-32a (+) prokaryotic expression vector. This recombinant vector was then thermally transformed into BL21 (DE3) bacterial host cells for subsequent protein expression. The strains above were cultivated on a liquid Luria-Bertani medium (180 rpm, 37°C). To initiate the expression of PVY CP, isopropyl β-D-1-thiogalactopyranoside (IPTG) was added to the culture medium at a concentration of […] when the optical density at 600 nm (OD600) reached a range between 0.6 and 0.8. This step triggered the production of the PVY CP protein. The induction process was maintained for 10 h (180 rpm, 16°C). The 6 × -His-S-tagged PVY CP^wt were purified using nickel-nitriloacetic acid by high-performance column affinity chromatography. Subsequently, enterokinase was employed to digest the proteins, and the desired target proteins were isolated using His-tag purification resin. Ultimately, the proteins were identified through the employment of a 12% sodium dodecyl sulfate-polyacrylamide gel electrophoresis method. The pET-32a (+) plasmid containing the PVY CP^wt gene was used as a template. […] The mutant protein was purified using the method for the purification of PVY CP^wt, which was PVY CP^S125A.
The proteins' binding affinity with target chemicals was evaluated using a Monolith NT.115 instrument (Nano Temper, Munich, Germany), utilizing established methods described in literature.[35]^,[48] A concentration of 2.0 mM was selected for the chemicals, and the proteins were tagged with the Monolith TM RED-NHS second-generation labeling kit. The MST assay analyzed the fluorescence intensity of the labeled proteins, focusing on a range from 400 to 1200 to investigate their interactions. The scanning method was conducted using an “LED power” setting of 40% and a temperature that was maintained at 25.0°C.

PVY-GFP = experiment: Systemic infection of PVY-GFP in Nicotiana benthamiana (UV fluorescence, RT-qPCR); type: in vivo, potato virus Y; settings: 500 μg/mL spray, 7 dpai
Excerpt: To evaluate the effect of C50 on PVY infection, we infiltrated the Nicotiana benthamiana plants with Agrobacterium carrying the PVY infectious clone pCamPVY-GFP. […] The RT-qPCR results for GFP were consistent with that of PVY RNA (Figure 3D).
The Nicotiana benthamiana plants were subjected to infestation by Agrobacterium tumefaciens, which carried either pCamPVY-GFP or an empty vector (mock). […] At 7 dpai, the leaves of N. benthamiana were looked at for the GFP using a LUYOR UV light (Shanghai, China), and captured in photographs. The foliage was gathered, rapidly frozen with liquid nitrogen, and subsequently preserved in a refrigerator set at a temperature of −80°C.
Leaf blades of Nicotiana benthamiana were pulverized into fine powder with the aid of liquid nitrogen, followed by the extraction of total RNA from the leaf tissue utilizing Trizol reagent (Invitrogen, California, USA). Subsequently, cDNA synthesis was conducted through reverse transcription with primers and a reverse transcription kit (Vazyme, Nanjing, China). Any potential DNA contamination was effectively removed using a gDNA wipe enzyme (Vazyme, Nanjing, China) as per the manufacturer’s guidelines. RT-qPCR analysis was carried out employing TB Green (TaKaRa, Beijing, China). Detailed information regarding the primers utilized in this investigation can be found in Table S2.

[4] = Chenopodium amaranticolor leaves, read-out: EC50 for inactivating activity
[5] = inactivating activity, Table S1, read-out: Experimental pEC50 (converted)

Row | Compound | melting point [°C] | inhibition at 500 µg/mL (PVY [1]) [%] | EC50 (PVY [2]; [4]) [µg/mL] | EC50 (PVY [2]; [5]) [µM] | inhibition at 500 µg/mL (PVY [3]) [%] | Kd (PVY CP^wt) [µM] | Green fluorescence under UV light (PVY-GFP; N. benthamiana, versus DMSO control) | PVY RNA accumulation level (control normalized as 100%) (PVY-GFP; systemic leaves of N. benthamiana, RT-qPCR) [%] | EC50 for inactivating activity (PVY [2]; Chenopodium amaranticolor leaves) [µg/mL] | EC50 (PVY [2]; read-out: EC50 for inactivating activity, Chenopodium amaranticolor leaves) [µg/mL]
1 | CC1(C)C=Cc2c(ccc(/C=N/c3ccc(NS(=O)(=O)Cc4ccccc4)cc3)c2O)O1 [Compound C28] | 143 to 145 | 60 to 70 | 503 ± 12.8 | 1120 | 60 to 70 | – | – | – | – | –
2 | CC1(C)C=Cc2c(ccc(/C=N/c3ccc(NS(=O)(=O)c4cc(F)cc(F)c4)cc3)c2O)O1 [Compound C26] | 207 to 209 | 60 to 70 | 100 ± 4.5 | 213 | 60 to 70 | – | – | – | – | –
3 | CC1(C)C=Cc2c(ccc(/C=N/c3ccc(NS(=O)(=O)c4ccc(Br)cc4)cc3)c2O)O1 [Compound C34] | 158 to 160 | 60 to 70 | 147 ± 8.3 | 288 | 60 to 70 | – | – | – | – | –
4 | CC(C)=CCCC1(C)C=Cc2c(ccc(/C=N/c3ccc(NS(=O)(=O)c4ccc(C)cc4)cc3)c2O)O1 (stereo not drawn) [Compound C42] | 95 to 97 | – | 503 ± 17 | 975 | – | 497 | – | – | – | –
5 | CC1(C)C=Cc2c(ccc(/C=N/c3ccc(NS(=O)(=O)c4c(F)cccc4F)cc3)c2O)O1 [Compound C32] | 191 to 193 | 60 to 70 | 88.3 ± 4 | 188 | 60 to 70 | – | – | – | – | –
6 | CCCCS(=O)(=O)Nc1ccc(/N=C/c2ccc3c(c2O)C=CC(C)(C)O3)cc1 [Compound C29] | 132 to 134 | 60 to 70 | 682 ± 10 | 1650 | 60 to 70 | – | – | – | – | –
7 | CC1(C)C=Cc2c(ccc(/C=N/c3ccc(NS(=O)(=O)c4cccc(Cl)c4)cc3)c2O)O1 [Compound C36] | 189 to 191 | 60 to 70 | 557 ± 14.3 | 1190 | 60 to 70 | – | – | – | – | –
8 | CC1(C)C=Cc2c(ccc(/C=N/c3ccc(NS(=O)(=O)c4ccc(Br)s4)cc3)c2O)O1 [Compound C10] | 140 to 142 | 60 to 70 | 492 ± 13.3 | 951 | 60 to 70 | – | – | – | – | –
9 | CC1(C)C=Cc2c(ccc(/C=N/c3ccc(NS(=O)(=O)c4cccc(Br)c4)cc3)c2O)O1 [Compound C16] | 161 to 163 | 60 to 70 | 688 ± 17.2 | 1350 | 60 to 70 | – | – | – | – | –
10 | CC1(C)C=Cc2c(ccc(/C=N/c3ccc(NS(=O)(=O)c4cccc(Cl)c4F)cc3)c2O)O1 [Compound C37] | 193 to 195 | 60 to 70 | 306 ± 11 | 631 | 60 to 70 | – | – | – | – | –
11 | CC1(C)C=Cc2c(ccc(/C=N/c3ccc(NS(=O)(=O)c4ccc(Cl)s4)cc3)c2O)O1 [Compound C24] | 141 to 143 | 60 to 70 | 754 ± 10.3 | 1590 | 60 to 70 | – | – | – | – | –
12 | Cc1c(Cl)cccc1S(=O)(=O)Nc1ccc(/N=C/c2ccc3c(c2O)C=CC(C)(C)O3)cc1 [Compound C38] | 193 to 195 | 60 to 70 | 410 ± 9.7 | 851 | 60 to 70 | – | – | – | – | –
13 | CNCC(=O)N[C@@H](CO)C(=O)N[C@H]1[C@H](O)[C@@H](O)[C@H](n2ccc(N)nc2=O)O[C@@H]1C(N)=O [NNM, Ningnanmycin, reference compound] | – | – | – | – | – | 8.6 | noteworthy decrease in green fluorescence | 51.8 | 75.7 ± 4.0 | 73.7
14 | Cc1cccc(S(=O)(=O)Nc2ccc(/N=C/c3ccc4c(c3O)C=CC(C)(C)O4)cc2)c1 [Compound C27] | 152 to 154 | 60 to 70 | 90.3 ± 7.1 | 202 | 60 to 70 | – | – | – | – | –
